From article PMC7804859, “A metabolically stable apelin-17 analog decreases AVP-induced antidiuresis and improves hyponatremia” (Nature Communications, 2021) come the findings set out here.

In experiment [1] the test system is rat outer medullary collecting ducts (OMCDs). Nature of the experiment: dDAVP-induced cAMP production in microdissected rat outer medullary collecting ducts. Format: cell-based.
Protocol: The left kidney of male rats was prepared for nephron microdissection, as previously described[51]. Pieces of OMCDs were isolated under a stereomicroscope.
Then cells were treated with 10
180 37°C. Then the media was removed and 100 µl of lysis buffer (Cisbio Bioassays, Codolet,
181 France) was added to Transwell filter and plate was incubated at 20°C for 2 hours. Cell
183 384-well plates (Perkin Elmer) according to manufacturer’s instructions (Cisbio Bioassays,
184 Codolet, France). Cyclic AMP levels were measured in microdissected OMCDs by the same
Results are expressed in femtomoles of cAMP produced
186 per mm tubular length and per 10 min incubation time at 37°C.
Experiment [2] relates to control Sprague-Dawley rats. Nature of the experiment: Effects of i.v. administration on urine output, urine osmolality and water intake in normonatremic rats. Format: in vivo, rat.
Protocol: Male Swiss mice (25–30 g, 4–6 weeks) and male Sprague–Dawley rats (210–230 g, 6–8 weeks) were obtained from Charles River Laboratories (L’Arbresle, France). While housed in our animal facility, they were given free access to normal chow and water, and they were maintained under 12-h light/dark cycles throughout the study. Temperature was maintained between 18 and 22 °C, and humidity between 40 and 60%. When required for i.v. administration, a right femoral venous catheter was implanted in the rats, by tunneling under the skin, under isoflurane anesthesia (4% for induction, 2% for maintenance). Meloxicam (Metacam) was administered postoperatively (1 mg/kg s.c.) for analgesia.
[3] abbreviates: 15 nmol/kg i.v., control rats, 24 h, n = 6.

Turning to `CSCC[C@H](NC(=O)[C@@H]1CCCN1C(=O)CNC(=O)[C@H](CCCCN)NC(=O)[C@H](Cc1c[nH]cn1)NC(=O)[C@H](CO)NC(=O)[C@H](CC(C)C)NC(=O)[C@H](CCCNC(=N)N)NC(=O)[C@@H]1CCCN1C(=O)[C@H](CCCNC(=N)N)NC(=O)[C@H](CCC(N)=O)NC(=O)[C@H](CCCNC(=N)N)NC(=O)[C@H](CCCNC(=N)N)NC(=O)[C@H](Cc1ccccc1)NC(=O)[C@H](CCCCN)NC(=O)CCC(F)(F)C(F)(F)C(F)(F)C(F)(F)C(F)(F)C(F)(F)C(F)(F)C(F)(F)F)C(=O)N1CCC[C@H]1C(=O)N[C@@H](Cc1ccccc1)C(=O)O` [LIT01-196], the “inhibition of dDAVP-induced cAMP production in OMCDs” value in experiment [1] (co-application with dDAVP 0.1 nmol/l, increasing concentrations 50 nmol/l to 50 µmol/l) stood at 41%. Besides, the “cAMP production, value (Fig 2E)” value worked out at 50 in experiment [1] (peptide 5.10-5M, experiment 1); 47 in experiment [1] (peptide 5.10-5M, experiment 2); 56 in experiment [1] (peptide 5.10-5M, experiment 3); 50 in experiment [1] (peptide 5.10-5M, experiment 4); 48 in experiment [1] (peptide 5.10-5M, experiment 5); 49 in experiment [1] (peptide 5.10-5M, experiment 6). In addition, the “cAMP production, value (Fig 2E)” value was 55 in experiment [1] (peptide 5.10-7M, experiment 1); 58 in experiment [1] (peptide 5.10-7M, experiment 2); 52 in experiment [1] (peptide 5.10-7M, experiment 3); 54 in experiment [1] (peptide 5.10-7M, experiment 4); 56 in experiment [1] (peptide 5.10-7M, experiment 5); 53 in experiment [1] (peptide 5.10-7M, experiment 6). Besides, the “cAMP production, value (Fig 2E)” value in experiment [1] (peptide 5.10-8M, experiment 1) is recorded as 85; in experiment [1] (peptide 5.10-8M, experiment 2) it was 87; in experiment [1] (peptide 5.10-8M, experiment 3), 90; in experiment [1] (peptide 5.10-8M, experiment 4), 83; in experiment [1] (peptide 5.10-8M, experiment 5), 88; in experiment [1] (peptide 5.10-8M, experiment 6), 81. Moreover, the “decrease in urine osmolality relative to saline” value in experiment [2] (setting [3]) came out at 38%. Moreover, in experiment [2] (setting [3]), the “increase in urine output relative to saline” value worked out at 95%. Further, the water intake result in experiment [2] (i.v., K17F 400 nmol/kg, LIT01-196 15 nmol/kg, 24 hours) is reported as “did not induce a significant change”.
